The source of these data is US20260337177A1, “TEAD CORE INHIBITORS FOR CANCER THERAPEUTICS” (University of Florida Research Foundation, Incorporated, priority 2023, published 2026).

Several values for one entry are separate records, joined by “and”; a condition that tells them apart may be missing. Identical values can stand only once.

Data set [1] relates to YAP/TEAD. The following applies: literature; cited from earlier work.
For data set [2], the system named is TEAD. The following applies: literature; cited from earlier work.
Data set [3] deals with CTGF. The experiment in a line: CTGF mRNA expression by RT-qPCR in Huh7 cells. The following applies: dose-dependent. The class given is cell-based, human. As to the method:
Huh7 and HepG2 liver cancer cells were seeded at 1×10^6 cells/dish and allowed to adhere overnight. The cells were then treated with indicated doses of compounds in medium for 24 hours. The cells were then harvested, and total RNA was purified using the Aurum total RNA mini kit (Bio-Rad #732-6820) according to the manufacturer's instructions. Complementary DNA was synthesized from 500 ng total RNA template by iScript reverse transcription kit (Bio-Rad #1725037) according to the manufacturer's instructions. Real-time PCR reactions utilized 60 ng cDNA and PrimePCR primers from Bio-Rad (Unique Assay ID: human GAPDH-qHsaCEP0041396, human CTGF-qHsaCEP0024255, human CYR61-qHsaCEP0024230) designed for SYBR Green gene expression analysis (Bio-Rad #1726270). All reactions were carried out in triplicate using Quant Studio 3 PCR system (Applied Biosystems). Relative gene expression level was quantified via ΔΔCt method by using GAPDH as an endogenous reference.

The subject of data set [4] is TEADs. The experiment in a line: TEAD-specific 8×GTIIC-luciferase reporter assay. The class given is cell-based. The note with it: for inhibition at 10 µM: 8×GTIIC-luciferase, read-out: Luciferase reporter assay inhibitory rate; for IC50: dose response, read-out: TEADs transcription inhibition IC50, luciferase reporter assay. The procedure: A series of compounds featuring a chloromethyl ketone moiety were synthesized (Schemes 1-4). The inhibitory rate of this series of compounds was tested using 8×GTIIC-luciferase reporter assay at 10 μM.
Next, the inhibition of TEAD transcription activity of compounds was tested varying the dosage using the 8×GTIIC-luciferase reporter assay. […] The aim was to determine whether its inhibition of TEAD transcription can lead to downregulation of the YAP-TEAD target genes. CTGF is one of the best characterized (bona fide) target gene of YAP and TAZ.
To further investigate the mechanism of the inhibitory effect of compounds in Huh7 cells, TEADs specific luciferase reporter assays were performed with compounds 22 and 12 at several concentrations. […] TEAD downstream gene expression patterns were evaluated in liver cancer cells Huh7, which has been evidenced with relative high expression of YAP and TEAD2.
HEK 293T cells were plated at 2×10^4 cells/well in a 96 well microplate and were transfected with 50 ng of 8×GTIIC-luciferase plasmid (Addgene #34615) and 0.5 ng of pRL-CMV (Promega #E226A) by using lipofectamine 3000 (Life Technologies #L3000). The 8×GTIIc-luciferase reporter is a Yap/Taz-activity reporter containing eight TEAD consensus binding sequences. After 6 h, transfected cells were treated with various concentrations of compounds or DMSO control. Luciferase signals were measured using the Dual Luciferase Reporter Assay System (Promega, E1960) according to the manufacturer's instructions. Experiments were performed in triplicate and repeated at least three times.

The test system of data set [5] is Huh7 cells. Briefly: Huh7 cell proliferation assay (CCK8). The class given is cell-based, human. The note with it: Homo sapiens, Huh-7, 72 h; 3 days; CCK8; mean ± SD of three independent experiments; read-out: Cell proliferation assay IC50, Huh7. The procedure:
CCK8 assay kit was used to determine antiproliferative activity of synthesized compounds against Huh7 cell line. First, Huh7 cells were seeded into 96-well plates at a density of 3000 cells/well and incubated overnight. Cells were then co-incubated with compounds at 8 concentrations for 72 h. Then, the cell proliferation was determined by the CCK8 kit according to the standard protocol. Experiments were performed in triplicate.

The subject of data set [6] is AML12 cells. The experiment in a line: AML12 normal liver cell growth inhibition (CCK8). The class given is cell-based. The note with it: for Inhibitory rate, AML12 (inhibitory percentage of AML12 cell growth): 10 μM, 3 days.
The nature of data set [7]: AML12 normal liver cell growth inhibition (CCK8). The class given is cell-based. The following applies: mouse, aml12 cells.
The subject of data set [8] is CTGF. The experiment in a line: CTGF protein expression by western blotting in Huh7 cells. The following applies: dose-dependent. The class given is cell-based, human. As to the method: Treated Huh7 cells were harvested and lysed in cold RIPA lysis buffer containing […] and phosphatase inhibitors. The protein concentrations were determined using the BCA Protein Assay kit. The prepared protein samples were loaded on and separated by 10% SDS-PAGE gel and then were transferred to PVDF membrane. Blots were blocked for 1 h at RT in blocking buffer and incubated with corresponding primary antibodies: anti-CTGF (ab227180), and anti-GAPDH (ab9485), at 4 ° C overnight. Then the blots were incubated with HRP-conjugated anti-rabbit secondary antibody in blocking buffer for 1.5 h at RT. The membranes were imaged with ChemiDoc MP imaging system.

For data set [9], the system named is TEAD. The experiment in a line: Fluorescence polarization assay. The class given is binding. The note with it: FIG. 1D. The source says: FIGS. 1A-1D depict discovery of C-3 as moderate TEAD transcription inhibitor. (FIG. 1A) The flowchart of the docking-based virtual screening campaign. (FIG. 1B) Predicted binding mode of C-3 in TEAD2 lipid binding pocket.

The subject of data set [10] is YAP. The following applies: literature; cited from earlier work.
In data set [11] the test system is YAP-TEAD. The note with it: all four TEAD family members; cited from earlier work.
Data set [12] relates to YAP. The note with it: literature; cited from earlier work. The source holds these as a separate data set.
Data set [13] has as its system Huh7 xenograft. The experiment in a line: Huh7 mouse xenograft model, antitumor efficacy. The note with it: Sorafenib 100 mg/kg oral every three days for 24 days. The class given is in vivo, NSG mouse. The procedure:
Based on the favorable in vitro potency and low toxicity, the in vivo antitumor efficacy of compound 22 was further evaluated in the NSG mouse (NOD scid gamma mouse) xenograft model from human Huh7 cells. Sorafenib, the first-line treatment for primary hepatocellular carcinoma (HCC) patients, served as the control. Compound 22 was tested as a monotherapy and in combination with Sorafenib.
The animals were administered 10 mg/kg of compound 22 twice a week for four weeks via intraperitoneal (IP) injection.
The mice were administered 50 mg/kg of compound 22 every three day for 24 days via intraperitoneal (IP) injection. Sorafenib was administered orally at a dose of 100 mg/kg following the same schedule.
Tumors were implanted by subcutaneous injection of 5×10^6 Huh7 cells in 100 μL of PBS containing 10% matrix gel (Coming, NY, USA), into the right flank of the mouse. When the tumor volume reached about 85 mm^3, mice were randomized into the vehicle control group (n=5) and a treatment group (n=5). The vehicle group (n=5) received the vehicle only (50% phosal 50 PG, 45% miglyol 810 N and 5% polysorbate 80), while the treatment group (n=5) was given compound 22 (50 mg/kg in 50% phosal 50 PG, 45% miglyol 810 N and 5% polysorbate 80) via IP injection every three days. After 24 days, mice were euthanized. Sorafenib (100 mg/kg, every three day) was dissolved in 75% Ethanol and Cremophor EL (1:1) and administered directly into the animals' stomachs using a gastric probe. Tumor size and body weight were measured every 3 days, and tumor volume was estimated using the formula volume=½×length×width^2. Tumor growth inhibition value (TGI) was calculated as TGI (%) [1−Vt/Vc]×100, where Vc and Vt were […].

Take `Cc1ccc2c(c1)c1c3n2CCNC3CCC1` (centres unmarked) [CPD3.1]: in data set [1], the “YAP/TEAD interaction, co-IP” value is recorded as “disrupt YAP/TEAD interaction”. Besides, in [2], the TEAD reporter activity result is recorded as “inhibits TEAD reporter activity”.

Regarding `O=C(CCl)c1c[nH]c2cc(Cl)c(OCc3ccc4ccccc4c3)cc12` [Compound 2, 2-chloro-1-(6-chloro-5-(naphthalen-2-ylmethoxy)-1H-indol-3-yl)ethan-1-one], the “CTGF mRNA expression, Huh7” value in [3] is listed as “significantly decreased”. Besides, the inhibition at 10 µM in data set [4] was found to be 95.6%; in data set [7] ("at 10 M", read-out: Inhibitory rate of AML cells) it was 32%. In addition, the IC50 is 890 nM and 870 nM in data set [4]; 2300 ± 600 nM in [5]. Besides, in data set [4] (varying dosage, FIGS. 3A-3B), the “TEAD transcription inhibition, luciferase reporter” value is given as “potent inhibition activity”. Also, the “Toxicity towards normal liver cell line AML12” value in data set [6] is “least toxic of the covalent compounds”. The “Inhibitory rate, AML12 (inhibitory percentage of AML12 cell growth)” value in data set [6] is listed as 32.1%. For the same molecule, the “CTGF protein expression, Huh7” value in data set [8] is recorded as “dose-dependent decrease”.

Consider `O=C(CCl)NCc1c[nH]c2cc(Cl)c(OCc3ccccc3)cc12` [Compound 12, N-((5-(benzyloxy)-6-chloro-1H-indol-3-yl)methyl)-2-chloroacetamide], for which, in data set [3], the “CTGF mRNA expression, Huh7” value is “suppressed”. Moreover, in [4], the inhibition at 10 µM worked out at 97.8%. Moreover, the IC50 stood at 629 nM in data set [4] and 1200 ± 300 nM in data set [5]. Also, in data set [6], the “Inhibitory rate, AML12 (inhibitory percentage of AML12 cell growth)” value amounted to 34.2%. Moreover, in data set [8], the “CTGF protein expression, Huh7” value is “suppression of CTGF protein production”.

Take `C=C(CN(C)C)C(=O)NCc1c[nH]c2cc(Cl)c(OCc3ccccc3)cc12` [Compound 25, N-((5-(benzyloxy)-6-chloro-1H-indol-3-yl)methyl)-2-((dimethylamino)methyl) acrylamide]: the inhibition at 10 µM in data set [4] is 71.8%. The IC50 in data set [5] came to 2000 ± 700 nM. For the same molecule, the “Inhibitory rate, AML12 (inhibitory percentage of AML12 cell growth)” value in data set [6] was found to be 37.2%.

For the molecule `Clc1cc2[nH]ccc2cc1OCc1ccccc1` [Compound C-3], in data set [4], the inhibition at 10 µM is 68.3% and the IC50 turned out to be 5000 nM. Moreover, in data set [5], the IC50 was determined as 32500 nM. The inhibition at 72 h, 10 µM in data set [7] (10 μM, 3 days, read-out: Inhibitory rate, AML12 (inhibitory percentage of AML12 cell growth)) stood at 20%. Also, in data set [9], the “Fluorescence polarization, inhibition” value was “inhibition”.

Regarding `COc1ccc(-c2cc(-c3ccccc3)nc3c2CC(=O)Nc2ccccc2-3)cc1OC` [NSC682769], the YAP binding result in data set [10] is “directly bind to YAP”. Further, the “Association of YAP with TEAD family members” value in data set [11] is reported as “inhibit its association with all four TEAD family members”. For the same molecule, the YAP expression entry in data set [12] was “attenuates YAP expression”.

In the case of `CNC(=O)c1cc(Oc2ccc(NC(=O)Nc3ccc(Cl)c(C(F)(F)F)c3)cc2)ccn1` [Sorafenib, reference compound], the “Tumor growth inhibition (TGI) rate” value in data set [13] amounted to 76%.
